# According to ChEMBL document CHEMBL3580553, “Potent and Nontoxic Chemosensitizer of P-Glycoprotein-Mediated Multidrug Resistance in Cancer: Synthesis and Evaluation of Methylated Epigallocatechin, Gallocatechin, and Dihydromyricetin Derivatives” (J Med Chem, 2015):
# pIC50: −log10 of the molar value.
# Experiments:
# [1] = Cytotoxicity against human LCC-6 cells after 3 days by MTS assay; assay type: functional, cell-based; details: LCC-6, 72 h
# [2] = Cytotoxicity against human MDA435/LCC6MDR cells after 3 days by MTS assay; assay type: functional, cell-based; details: 72 h
# L929 = assay: Cytotoxicity against mouse L929 cells after 3 days by MTS assay; assay type: cell-based; details: L929, 72 h
# [3] = target: ATP-dependent translocase ABCB1 (Homo sapiens, UniProt P08183); assay: Modulation of P-gp (unknown origin) transfected in human MDA435/LCC6MDR cells assessed as reversible of paclitaxel resistance measured as IC50 for paclitaxel at 1 uM after 5 days by CellTiter 96 Aqueous assay relative to PTX alone treated cell; assay type: cell-based; details: 120 h
# Sequence of ATP-dependent translocase ABCB1 (P08183 whole entry): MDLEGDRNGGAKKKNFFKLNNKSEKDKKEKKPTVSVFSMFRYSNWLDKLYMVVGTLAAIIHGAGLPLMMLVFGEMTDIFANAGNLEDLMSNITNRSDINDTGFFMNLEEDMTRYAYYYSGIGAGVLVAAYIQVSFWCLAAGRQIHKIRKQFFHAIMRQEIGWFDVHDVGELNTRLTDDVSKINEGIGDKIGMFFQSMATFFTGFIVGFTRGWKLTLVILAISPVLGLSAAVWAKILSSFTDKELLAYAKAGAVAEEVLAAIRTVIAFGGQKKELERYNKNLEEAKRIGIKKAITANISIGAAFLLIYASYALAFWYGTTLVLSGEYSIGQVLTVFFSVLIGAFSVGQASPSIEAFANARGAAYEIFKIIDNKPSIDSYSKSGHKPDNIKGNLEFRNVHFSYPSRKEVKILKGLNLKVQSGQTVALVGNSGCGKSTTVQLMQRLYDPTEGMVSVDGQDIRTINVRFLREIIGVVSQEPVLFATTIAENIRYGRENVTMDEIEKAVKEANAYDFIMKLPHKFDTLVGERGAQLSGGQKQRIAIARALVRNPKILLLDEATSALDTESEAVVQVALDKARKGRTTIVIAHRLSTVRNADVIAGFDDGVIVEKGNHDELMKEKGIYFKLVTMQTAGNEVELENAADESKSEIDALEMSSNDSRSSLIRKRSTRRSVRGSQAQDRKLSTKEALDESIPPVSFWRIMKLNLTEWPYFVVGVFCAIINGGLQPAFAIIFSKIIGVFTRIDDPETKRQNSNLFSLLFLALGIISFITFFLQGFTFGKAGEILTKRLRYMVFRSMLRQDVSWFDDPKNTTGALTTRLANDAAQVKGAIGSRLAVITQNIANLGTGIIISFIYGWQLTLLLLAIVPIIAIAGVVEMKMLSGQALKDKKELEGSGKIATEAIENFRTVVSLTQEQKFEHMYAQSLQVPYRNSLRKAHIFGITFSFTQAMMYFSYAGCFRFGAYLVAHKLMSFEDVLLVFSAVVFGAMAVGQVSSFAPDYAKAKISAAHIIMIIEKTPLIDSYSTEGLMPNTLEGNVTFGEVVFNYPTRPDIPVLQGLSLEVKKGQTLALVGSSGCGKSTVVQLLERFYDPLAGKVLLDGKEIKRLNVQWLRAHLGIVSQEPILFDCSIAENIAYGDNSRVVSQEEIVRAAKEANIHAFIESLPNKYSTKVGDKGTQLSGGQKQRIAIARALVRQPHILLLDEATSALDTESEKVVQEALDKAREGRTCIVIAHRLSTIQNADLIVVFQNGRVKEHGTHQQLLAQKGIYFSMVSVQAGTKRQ
# [4] = Modulation of P-gp (unknown origin) transfected in human MDA435/LCC6MDR cells assessed as reversible of paclitaxel resistance measured as IC50 for paclitaxel at 1 uM after 5 days by CellTiter 96 Aqueous assay
# [5] = Selectivity index, ratio of IC50 for mouse […] cells to EC50 for modulation of P-gp (unknown origin) transfected in human MDA435/LCC6MDR cells assessed as reversing paclitaxel resistance; set-up: species or system L929
Compound,Ratio [3],IC50 [4] [µM],pIC50 [1],pIC50 [2],pIC50 (L929),Ratio IC50/EC50 [5]
CC(=O)O[C@H]1C(=O)[C@@]2(C)[C@H]([C@H](OC(=O)c3ccccc3)[C@]3(O)C[C@H](OC(=O)[C@H](O)[C@@H](NC(=O)c4ccccc4)c4ccccc4)C(C)=C1C3(C)C)[C@]1(OC(C)=O)CO[C@@H]1C[C@@H]2O [PACLITAXEL],–,–,8.80,6.84,–,–
COc1cc(OC)c2c(c1)O[C@H](c1cc(OC)c(OC)c(OC)c1)[C@@H](OC(=O)/C=C/c1cc(OC)c(OC)c(OC)c1)C2,–,–,< 4.00,< 4.00,< 4.00,–
COc1cc(OC)c2c(c1)O[C@H](c1cc(OC)c(OC)c(OC)c1)[C@H](OC(=O)CCc1ccc(OC)c(OC)c1)C2,7.6,–,–,–,–,–
COc1cc(OC)c2c(c1)O[C@H](c1cc(OC)c(OC)c(OC)c1)[C@H](OC(=O)Cc1ccc(OC)c(OC)c1)C2,4.5,–,–,–,–,–
COc1cc(OC)c2c(c1)O[C@H](c1cc(OC)c(OC)c(OC)c1)[C@@H](OC(=O)c1cc(OC)c(OC)c(OC)c1)C2=O,3.3,–,–,–,–,–
COc1cc(OC)c2c(c1)O[C@H](c1cc(OC)c(OC)c(OC)c1)[C@H](OC(=O)c1ccc(F)c(NC(=O)c3ccc(F)c(NC(=O)c4ccc(OC)c(OC)c4)c3)c1)C2,10.6,–,–,–,–,–
COc1cc(OC)c2c(c1)O[C@H](c1cc(OC)c(OC)c(OC)c1)[C@@H](OC(=O)c1ccc(F)c(NC(=O)c3ccc(OC)c(OC)c3)c1)C2=O,15.4,–,–,–,–,–
COc1ccc(/C=C/C(=O)O[C@H]2Cc3c(OC)cc(OC)cc3O[C@@H]2c2cc(OC)c(OC)c(OC)c2)cc1,7.8,–,–,–,–,–
CCOc1cc(C(=O)O[C@@H]2Cc3c(OC)cc(OC)cc3O[C@@H]2c2cc(OC)c(OC)c(OC)c2)cc(OCC)c1OCC,1.3,–,< 4.00,< 4.00,< 4.00,–
CC(=O)Oc1cc(OC(C)=O)c2c(c1)O[C@H](c1cc(OC(C)=O)c(OC(C)=O)c(OC(C)=O)c1)[C@H](OC(=O)c1cc(OC(C)=O)c(OC(C)=O)c(OC(C)=O)c1)C2,0.8,–,4.15,4.50,4.38,–
COc1cc(OC)c2c(c1)O[C@H](c1cc(OC)c(OC)c(OC)c1)[C@@H](OC(=O)c1ccc(F)c(NC(=O)/C=C/c3ccc(OC)c(OC)c3)c1)C2,21.9,–,< 4.00,< 4.00,< 4.00,>357
COc1cc(OC)c2c(c1)O[C@H](c1cc(OC)c(OC)c(OC)c1)[C@@H](OC(=O)c1ccc(OC)c(OC)c1)C2=O,4,–,–,–,–,–
COc1cc(OC)c2c(c1)O[C@H](c1cc(OC)c(OC)c(OC)c1)[C@H](OC(=O)c1cccc(F)c1)C2,1.5,–,< 4.00,< 4.00,< 4.00,–
COc1cc(OC)c2c(c1)O[C@H](c1cc(OC)c(OC)c(OC)c1)[C@H](OC(=O)Cc1cc(OC)c(OC)c(OC)c1)C2,5.8,0.025,–,–,–,–
COc1cc(OC)c2c(c1)O[C@H](c1cc(OC)c(OC)c(OC)c1)[C@H](OC(=O)/C=C/c1ccc(OC)c(OC)c1)C2,16.6,–,< 4.00,< 4.00,< 4.00,>638
COc1ccc(CC(=O)O[C@@H]2Cc3c(OC)cc(OC)cc3O[C@@H]2c2cc(OC)c(OC)c(OC)c2)cc1,4.2,–,–,–,–,–
COc1cc(OC)c2c(c1)O[C@H](c1cc(OC)c(OC)c(OC)c1)[C@@H](O)C2,1.1,–,–,–,–,–
COc1cc(OC)c2c(c1)O[C@H](c1cc(OC)c(OC)c(OC)c1)[C@H](OC(=O)c1ccc(F)c(NC(=O)/C=C/c3cc(OC)c(OC)c(OC)c3)c1)C2,23.3,–,< 4.00,< 4.00,< 4.00,–
COc1ccc(/C=C/C(=O)O[C@H]2C(=O)c3c(OC)cc(OC)cc3O[C@@H]2c2cc(OC)c(OC)c(OC)c2)cc1,3.6,–,–,–,–,–
COc1ccc(C(=O)O[C@H]2Cc3c(OC)cc(OC)cc3O[C@@H]2c2cc(OC)c(OC)c(OC)c2)cc1,2.2,–,–,–,–,–
COc1cc(OC)c2c(c1)O[C@H](c1cc(OC)c(OC)c(OC)c1)[C@@H](OC(=O)c1ccc(F)c(NC(=O)c3cc(OC)c(OC)c(OC)c3)c1)C2=O,4,–,–,–,–,–
COc1cc(OC)c2c(c1)O[C@H](c1cc(OC)c(OC)c(OC)c1)[C@H](OC(=O)c1ccc(OC)c(OC)c1)C2,7.4,–,< 4.00,< 4.00,< 4.00,–
COc1cc(OC)c2c(c1)O[C@H](c1cc(OC)c(OC)c(OC)c1)[C@H](OC(=O)CCc1cc(OC)c(OC)c(OC)c1)C2,8,–,–,–,–,–
COc1cc(OC)c2c(c1)O[C@H](c1cc(OC)c(OC)c(OC)c1)[C@H](O)C2,0.9,0.1552,< 4.00,< 4.12,< 4.00,–
C=CCOc1cc(C(=O)O[C@@H]2Cc3c(OC)cc(OC)cc3O[C@@H]2c2cc(OC)c(OC)c(OC)c2)cc(OCC=C)c1OCC=C,12.1,–,< 4.00,< 4.00,< 4.00,–
COc1cc(OC)c2c(c1)O[C@H](c1cc(OC)c(OC)c(OC)c1)[C@H](OC(=O)c1ccc(F)c(NC(=O)/C=C/c3ccc(OC)c(OC)c3)c1)C2,17.9,0.0081,< 4.00,< 4.00,< 4.00,–

# Further lines, with some results ahead:
Ratio [3],IC50 [4] [µM],Compound,pIC50 [1],pIC50 [2],pIC50 (L929),Ratio IC50/EC50 [5]
2.7,–,COc1cc(OC)c2c(c1)O[C@H](c1cc(OC)c(OC)c(OC)c1)[C@H](OC(=O)c1ccc(F)cc1)C2,< 4.00,< 4.00,< 4.00,–
12.1,–,COc1cc(OC)c2c(c1)O[C@H](c1cc(OC)c(OC)c(OC)c1)[C@@H](OC(=O)c1ccc(OC)c(OC)c1)C2,–,–,–,–
2.1,–,COc1cc(O)c2c(=O)c(OC(=O)c3cc(OC)c(OC)c(OC)c3)c(-c3ccc(OC)c(OC)c3)oc2c1,–,–,–,–
3.6,–,COc1ccc(CCC(=O)O[C@@H]2Cc3c(OC)cc(OC)cc3O[C@@H]2c2cc(OC)c(OC)c(OC)c2)cc1,–,–,–,–
3.2,–,COc1cccc(C(=O)O[C@@H]2Cc3c(OC)cc(OC)cc3O[C@@H]2c2cc(OC)c(OC)c(OC)c2)c1,< 4.00,< 4.00,< 4.00,–
12.3,0.0118,COc1cc(OC)c2c(c1)O[C@H](c1cc(OC)c(OC)c(OC)c1)[C@@H](OC(=O)/C=C/c1ccc(OC)c(OC)c1)C2,< 4.00,< 4.00,< 4.00,–
10.8,–,COc1cc(OC)c2c(c1)O[C@H](c1cc(OC)c(OC)c(OC)c1)[C@H](OC(=O)c1ccc(F)c(NC(=O)c3ccc(F)c(NC(=O)c4cc(OC)c(OC)c(OC)c4)c3)c1)C2,–,–,–,–
5.2,–,COc1cc(OC)c2c(c1)O[C@H](c1cc(OC)c(OC)c(OC)c1)[C@@H](OC(=O)c1ccc(F)c(NC(=O)/C=C/c3cc(OC)c(OC)c(OC)c3)c1)C2=O,–,–,–,–
1.4,–,COc1cc(OC)c2c(c1)O[C@H](c1cc(OC)c(OC)c(OC)c1)[C@@H](OC(C)=O)C2=O,–,–,–,–
9.2,0.0157,COc1ccc(C(=O)Nc2cc(C(=O)Nc3cc(C(=O)O[C@@H]4Cc5c(OC)cc(OC)cc5O[C@@H]4c4cc(OC)c(OC)c(OC)c4)ccc3F)ccc2F)cc1,–,–,–,–
4.6,–,C=CCOc1cc(C(=O)O[C@H]2C(=O)c3c(OC)cc(OC)cc3O[C@@H]2c2cc(OC)c(OC)c(OC)c2)cc(OCC=C)c1OCC=C,–,–,–,–
6,–,COc1ccc(C(=O)OCCOc2c(-c3ccc(OC)c(OC)c3)oc3cc(OC)cc(OC)c3c2=O)cc1,–,–,–,–
1,–,COc1ccc(C(=O)O[C@@H]2Cc3c(OC)cc(OC)cc3O[C@@H]2c2cc(OC)c(OC)c(OC)c2)cc1,< 4.00,< 4.08,< 4.00,–
10,0.0144,COc1cc(OC)c2c(c1)O[C@H](c1cc(OC)c(OC)c(OC)c1)[C@@H](OC(=O)c1ccc(F)c(NC(=O)/C=C/c3ccc(OC)c(OC)c3)c1)C2=O,–,–,–,–
4,–,COc1cc(OC)c2c(c1)O[C@H](c1cc(OC)c(OC)c(OC)c1)[C@H](OC(=O)c1ccc(F)c(N(C)C)c1)C2,< 4.00,< 4.00,< 4.00,–
9.8,–,COc1cc(OC)c2c(c1)O[C@H](c1cc(OC)c(OC)c(OC)c1)[C@H](OC(=O)c1ccc(F)c(NC(C)=O)c1)C2,< 4.00,< 4.00,< 4.00,–
34.4,0.0042,COc1cc(OC)c2c(c1)O[C@H](c1cc(OC)c(OC)c(OC)c1)[C@@H](OC(=O)c1ccc(F)c(NC(=O)/C=C/c3cc(OC)c(OC)c(OC)c3)c1)C2,< 4.00,< 4.00,< 4.00,>444
11.2,–,COc1cc(OC)c2c(=O)c(OCCOC(=O)/C=C/c3cc(OC)c(OC)c(OC)c3)c(-c3ccc(OC)c(OC)c3)oc2c1,–,–,–,–
5.5,0.0262,COc1cc(OC)c2c(c1)O[C@H](c1cc(OC)c(OC)c(OC)c1)[C@@H](OC(=O)/C=C/c1ccc(OC)c(OC)c1)C2=O,–,–,–,–
9.1,0.0159,COc1cc(OC)c2c(c1)O[C@H](c1cc(OC)c(OC)c(OC)c1)[C@@H](OC(=O)/C=C/c1cc(OC)c(OC)c(OC)c1)C2=O,–,–,–,–
3,–,COc1cc(OC)c2c(c1)O[C@H](c1cc(OC)c(OC)c(OC)c1)[C@@H](OC(=O)c1cc(OC)c(OC)c(OC)c1)C2,–,–,–,–
6.9,0.021,COc1cc(OC)c2c(c1)O[C@H](c1cc(OC)c(OC)c(OC)c1)[C@H](OC(=O)c1cc(OC)c(OC)c(OC)c1)C2,< 4.00,< 4.00,< 4.00,–
6.6,–,COc1ccc(/C=C/C(=O)O[C@@H]2Cc3c(OC)cc(OC)cc3O[C@@H]2c2cc(OC)c(OC)c(OC)c2)cc1,< 4.00,< 4.00,< 4.00,–
3,–,COc1ccc(C(=O)O[C@H]2C(=O)c3c(OC)cc(OC)cc3O[C@@H]2c2cc(OC)c(OC)c(OC)c2)cc1,–,–,–,–
